In patent US9890189B2, “Gemcitabine prodrugs and uses thereof” (BoYen Therapeutics, Inc., priority 2012, dated 2018):

What was measured:
[1] = In vitro metabolic conversion assay using human liver S9 fractions; format: in vitro ADME; conditions: 10 μM, 37° C., 60 minutes, LC/MS/MS; for Formation of Gemcitabine: not quantitatively monitored
Protocol: Method H: In Vitro Metabolic Conversion Assay Using Human Liver S9 Fractions
A representative sampling of prodrug compounds was incubated with human liver S9 fractions (Life Technologies Corporation) at 10 μM in duplicates. Incubations were carried out at 37° C. in a shaker water bath. Samples were taken at 0 and 60 minutes. Negative controls (without S9 fractions) and positive controls (7-ethoxycoumarin and 7-hydroxycoumarin) were run concurrently with the test articles in duplicates. All samples were analyzed using LC/MS/MS; depletion of the parent compounds and the formation of gemcitabine were monitored, though the latter was not quantitatively monitored.
After incubation with human liver S9 fractions for 60 minutes, depletion of each test compound was observed along with formation of gemcitabine as a metabolite.

[2] = system: human HCT116 colorectal adenocarcinoma; assay: Efficacy evaluation in HCT116 tumor cell xenograft model in nude mice; format: in vivo; conditions: female nude mice, subcutaneous HCT116 tumors, Day 14 vs control group
Protocol: Method I: Efficacy Evaluation in HCT116 Tumor Cell Xenograft Model in Nude Mice Compounds 17, 18, 19 and 32 were evaluated for oral activity against human HCT116 colorectal adenocarcinoma in female nude mice. For the treatment groups, the above compounds were given perorally in 15% Tween 80 at a dose of 20 mg/kg once daily for 14 days. As a reference group, gemcitabine was administered intraperitoneally at 160 mg/kg once every three days for 4 doses. A control group received only the vehicle on the same peroral schedule as that of the treatment groups. Treatment began on Day 1 in all groups of female nude mice (n=8) bearing subcutaneous tumors of ˜180 mm^3 in size; the study duration was 14 days. Treatment results were presented as Tumor Growth Inhibition (TGI) as a percentage of average tumor size of untreated mice in the control group at Day 14.

[3] = perorally in 15% Tween 80, 20 mg/kg once daily for 14 days

% of Parent Remaining [1] [%]	Formation of Gemcitabine [1]	SMILES	Tumor Growth Inhibition (TGI) [2, 3] [%]	Tumor Growth Inhibition (TGI) ([2]; intraperitoneally 160 mg/kg once every three days for 4 doses) [%]
1	✓	CCOC(=O)Nc1ccn([C@@H]2O[C@H](CO)[C@@H](OC(=O)CCc3cccnc3)C2(F)F)c(=O)n1 [Compound 59, 1-[(2R,4R,5R)-3,3-Difluoro-5-hydroxymethyl-4-(3-(3-pyridyl)propanoyloxy)oxolan-2-yl]-1,2-dihydro-4-(ethoxycarbonylamino)-pyrimidin-2-one]	–	–
2	✓	CCOC(=O)Nc1ccn([C@@H]2O[C@H](CO)[C@@H](OC(=O)CCCCCCC(=O)Nc3ccccc3)C2(F)F)c(=O)n1 [Compound 62, 1-[(2R,4R,5R)-4-(8-Anilino-8-oxo-octanoyloxy)-3,3-difluoro-5-hydroxymethyl-oxolan-2-yl]-1,2-dihydro-4-(ethoxycarbonylamino)-pyrimidin-2-one]	–	–
0	✓	CCOC(=O)Nc1ccn([C@@H]2O[C@H](COC(=O)CCc3ccccc3)[C@@H](O)C2(F)F)c(=O)n1 [Compound 10, 1-[(2R,4R,5R)-3,3-Difluoro-4-hydroxy-5-(3-phenylpropanoyloxymethyl)oxolan-2-yl]-1,2-dihydro-4-(ethoxycarbonylamino)-pyrimidin-2-one]	–	–
0	✓	CCOC(=O)Nc1ccn([C@@H]2O[C@H](CO)[C@@H](OC(=O)CCc3ccccc3)C2(F)F)c(=O)n1 [Compound 58, 1-[(2R,4R,5R)-3,3-Difluoro-5-hydroxymethyl-4-(3-phenylpropanoyloxy)oxolan-2-yl]-1,2-dihydro-4-(ethoxycarbonylamino)-pyrimidin-2-one]	–	–
–	–	CCCCOC(=O)Nc1ccn([C@@H]2O[C@H](COC(=O)CCc3cccnc3)[C@@H](O)C2(F)F)c(=O)n1 [Compound 18, 4-(Butyloxycarbonylamino)-1-[(2R,4R,5R)-3,3-difluoro-4-hydroxy-5-(3-(3-pyridyl)propanoyloxymethyl)oxolan-2-yl]-1,2-dihydro-pyrimidin-2-one]	81.1	–
0	✓	CCOC(=O)Nc1ccn([C@@H]2O[C@H](COC(=O)CCc3cccnc3)[C@@H](O)C2(F)F)c(=O)n1 [Compound 11, 1-[(2R,4R,5R)-3,3-Difluoro-4-hydroxy-5-(3-(3-pyridyl)-propanoyloxymethyl)oxolan-2-yl]-1,2-dihydro-4-(ethoxycarbonylamino)-pyrimidin-2-one]	–	–
–	–	CCCCOC(=O)Nc1ccn([C@@H]2O[C@H](COC(=O)CCc3ccccc3)[C@@H](O)C2(F)F)c(=O)n1 [Compound 17, 4-(Butyloxycarbonylamino)-1-[(2R,4R,5R)-3,3-difluoro-4-hydroxy-5-(3-phenylpropanoyloxymethyl)oxolan-2-yl]-1,2-dihydropyrimidin-2-one]	77.3	–
–	–	Nc1ccn([C@@H]2O[C@H](CO)[C@@H](O)C2(F)F)c(=O)n1 [gemcitabine]	–	85.6
0	✓	CCOC(=O)Nc1ccn([C@@H]2O[C@H](COC(=O)CCCCCCC(=O)Nc3ccccc3)[C@@H](O)C2(F)F)c(=O)n1 [Compound 14, 1-[(2R,4R,5R)-5-((8-Anilino-8-oxo-octanoyloxy)methyl)-3,3-difluoro-4-hydroxy-oxolan-2-yl]-1,2-dihydro-4-(ethoxycarbonylamino)-pyrimidin-2-one]	–	–
8	✓	Nc1ccn([C@@H]2O[C@H](COC(=O)CCCCC(=O)Nc3ccccc3)[C@@H](O)C2(F)F)c(=O)n1 [Compound 6, 4-Amino-1-[(2R,4R,5R)-5-((6-anilino-6-oxo-hexanoyloxy)methyl)-3,3-difluoro-4-hydroxy-oxolan-2-yl]-1,2-dihydropyrimidin-2-one]	–	–
–	–	CCCCCOC(=O)Nc1ccn([C@@H]2O[C@H](COC(=O)CCc3cccnc3)[C@@H](O)C2(F)F)c(=O)n1 [Compound 32, 1-[(2R,4R,5R)-3,3-Difluoro-4-hydroxy-5-(3-(3-pyridyl)-propanoyloxymethyl)oxolan-2-yl]-1,2-dihydro-4-(pentyloxycarbonylamino)-pyrimidin-2-one]	86.7	–
13	✓	CCOC(=O)Nc1ccn([C@@H]2O[C@H](COC(=O)CCCCC(=O)Nc3ccccc3)[C@@H](O)C2(F)F)c(=O)n1 [Compound 13, 1-[(2R,4R,5R)-5-((6-Anilino-6-oxo-hexanoyloxy)methyl)-3,3-difluoro-4-hydroxy-oxolan-2-yl]-1,2-dihydro-4-(ethoxycarbonylamino)-pyrimidin-2-one]	–	–
–	–	CCCCOC(=O)Nc1ccn([C@@H]2O[C@H](COC(=O)CCC(=O)Nc3ccccc3)[C@@H](O)C2(F)F)c(=O)n1 [Compound 19, 1-[(2R,4R,5R)-5-((4-Anilino-4-oxo-butanoyloxy)methyl)-3,3-difluoro-4-hydroxy-oxolan-2-yl]-4-(butyloxycarbonylamino)-1,2-dihydro-pyrimidin-2-one]	75.8	–
1	✓	Nc1ccn([C@@H]2O[C@H](COC(=O)CCc3ccccc3)[C@@H](O)C2(F)F)c(=O)n1 [Compound 3, 4-Amino-1-[(2R,4R,5R)-3,3-difluoro-4-hydroxy-5-(3-phenylpropanoyloxymethyl)oxolan-2-yl]-1,2-dihydropyrimidin-2-one]	–	–
